# Assay results reported in ChEMBL document CHEMBL3414511, “Synthesis of a novel class of substituted benzothiophene or benzofuran derivatives as BMP-2 up-regulators and evaluation of the BMP-2-up-regulating effects in vitro and the effects on glucocorticoid-induced osteoporosis in rats” (Eur J Med Chem, 2015).
# The source made the active and inactive calls. The calls are words filed in the database; no cut-off is given here.
# Assays:
# Rattus norvegicus [1] = assay: Toxicity in glucocorticoid-induced Wistar rat osteoporosis model assessed as white blood cells at 5 mg/kg/day, po administered six times a week for 3 months (reference value: 6.28 +/- 2.78 x 10^9/L); format: organism-based; set-up: route oral; settings: in vivo
# Rattus norvegicus [2] = assay: Toxicity in glucocorticoid-induced Wistar rat osteoporosis model assessed as lymph level at 5 mg/kg/day, po administered six times a week for 3 months (reference value: 50.35 +/- 12.96%); format: organism-based; set-up: route oral; settings: in vivo
# Rattus norvegicus [3] = assay: Toxicity in glucocorticoid-induced Wistar rat osteoporosis model assessed as neutrophilic granulocytes level at 5 mg/kg/day, po administered six times a week for 3 months (reference value: 31.95 +/- 8.33%); format: organism-based; set-up: route oral; settings: in vivo
# Rattus norvegicus [4] = assay: Toxicity in glucocorticoid-induced Wistar rat osteoporosis model assessed as aspartate transaminase level at 5 mg/kg/day, po administered six times a week for 3 months (reference value: 177.55 +/- 116.98 U/L); format: organism-based; set-up: route oral; settings: in vivo
# Rattus norvegicus [5] = assay: Toxicity in glucocorticoid-induced Wistar rat osteoporosis model assessed as alanine transaminase level at 5 mg/kg/day, po administered six times a week for 3 months (reference value: 43.73 +/- 36.21 U/L); format: organism-based; set-up: route oral; settings: in vivo
# Rattus norvegicus [6] = assay: Toxicity in glucocorticoid-induced Wistar rat osteoporosis model assessed as triglycerides level at 5 mg/kg/day, po administered six times a week for 3 months (reference value: 1.13 +/- 0.69 mmol/L); format: organism-based; set-up: route oral; settings: in vivo
# Rattus norvegicus [7] = assay: Antiosteoporotic activity in glucocorticoid-induced Wistar rat osteoporosis model assessed as trabecular bone volume at 5 mg/kg/day, po administered six times a week for 3 months by fluorescence assay (reference value: 33.09 +/- 5.15%); format: functional, Trabecula
# Rattus norvegicus [8] = assay: Antiosteoporotic activity in glucocorticoid-induced Wistar rat osteoporosis model assessed as trabecula formation surface at 5 mg/kg/day, po administered six times a week for 3 months by fluorescence assay (reference value: 7.82 +/- 2.46%); format: functional
# Rattus norvegicus [9] = assay: Antiosteoporotic activity in glucocorticoid-induced Wistar rat osteoporosis model assessed as trabecula resorption surface at 5 mg/kg/day, po administered six times a week for 3 months by fluorescence assay (reference value: 7.22 +/- 2.04%); format: functional
# Rattus norvegicus [10] = assay: Antiosteoporotic activity in glucocorticoid-induced Wistar rat osteoporosis model assessed as mineral apposition rate at 5 mg/kg/day, po administered six times a week for 3 months by fluorescence assay (reference value: 1.06 +/- 0.27 micrometer/day); format: functional
# Rattus norvegicus [11] = assay: Antiosteoporotic activity in glucocorticoid-induced Wistar rat osteoporosis model assessed as increase in trabecula number at 5 mg/kg/day, po administered six times a week for 3 months by toluidine blue staining-based light microscopic analysis relative to dexamethasone; format: functional, organism-based
# Rattus norvegicus [12] = assay: Antiosteoporotic activity in glucocorticoid-induced Wistar rat osteoporosis model assessed as increase in trabecula thickness at 5 mg/kg/day, po administered six times a week for 3 months by toluidine blue staining-based light microscopic analysis relative to dexamethasone; format: functional, organism-based
# Rattus norvegicus [13] = assay: Antiosteoporotic activity in glucocorticoid-induced Wistar rat osteoporosis model assessed as increase in trabecula area at 5 mg/kg/day, po administered six times a week for 3 months by toluidine blue staining-based light microscopic analysis relative to dexamethasone; format: functional, organism-based
# Rattus norvegicus [14] = assay: Antiosteoporotic activity in glucocorticoid-induced Wistar rat osteoporosis model assessed as increase in trabecula connectivity at 5 mg/kg/day, po administered six times a week for 3 months by toluidine blue staining-based light microscopic analysis relative to dexamethasone; format: functional, organism-based
# Rattus norvegicus [15] = assay: Antiosteoporotic activity in glucocorticoid-induced Wistar rat osteoporosis model assessed as increase in trabecula number at 0.05 ug/kg/day, po administered six times a week for 3 months by toluidine blue staining-based light microscopic analysis relative to dexamethasone; format: functional, organism-based
# Rattus norvegicus [16] = assay: Antiosteoporotic activity in glucocorticoid-induced Wistar rat osteoporosis model assessed as increase in trabecula thickness at 0.05 ug/kg/day, po administered six times a week for 3 months by toluidine blue staining-based light microscopic analysis relative to dexamethasone; format: functional, organism-based
# Rattus norvegicus [17] = assay: Antiosteoporotic activity in glucocorticoid-induced Wistar rat osteoporosis model assessed as increase in trabecula area at 0.05 ug/kg/day, po administered six times a week for 3 months by toluidine blue staining-based light microscopic analysis relative to dexamethasone; format: functional, organism-based
# Rattus norvegicus [18] = assay: Antiosteoporotic activity in glucocorticoid-induced Wistar rat osteoporosis model assessed as increase in trabecula connectivity at 0.05 ug/kg/day, po administered six times a week for 3 months by toluidine blue staining-based light microscopic analysis relative to dexamethasone; format: functional, organism-based
# Rattus norvegicus [19] = assay: Toxicity in glucocorticoid-induced Wistar rat osteoporosis model assessed as white blood cells at 0.05 ug/kg/day, po administered six times a week for 3 months (reference value: 6.28 +/- 2.78 x 10^9/L); format: organism-based; settings: in vivo, 5e-05 mg/kg
# Rattus norvegicus [20] = assay: Toxicity in glucocorticoid-induced Wistar rat osteoporosis model assessed as lymph level at 0.05 ug/kg/day, po administered six times a week for 3 months (reference value: 50.35 +/- 12.96%); format: organism-based; settings: in vivo, 5e-05 mg/kg
# Rattus norvegicus [21] = assay: Toxicity in glucocorticoid-induced Wistar rat osteoporosis model assessed as neutrophilic granulocytes level at 0.05 ug/kg/day, po administered six times a week for 3 months (reference value: 31.95 +/- 8.33%); format: organism-based; settings: in vivo, 5e-05 mg/kg
# Rattus norvegicus [22] = assay: Toxicity in glucocorticoid-induced Wistar rat osteoporosis model assessed as aspartate transaminase level at 0.05 ug/kg/day, po administered six times a week for 3 months (reference value: 177.55 +/- 116.98 U/L); format: organism-based; settings: in vivo, 5e-05 mg/kg
# Rattus norvegicus [23] = assay: Toxicity in glucocorticoid-induced Wistar rat osteoporosis model assessed as alanine transaminase level at 0.05 ug/kg/day, po administered six times a week for 3 months (reference value: 43.73 +/- 36.21 U/L); format: organism-based; settings: in vivo, 5e-05 mg/kg
# Rattus norvegicus [24] = assay: Toxicity in glucocorticoid-induced Wistar rat osteoporosis model assessed as triglycerides level at 0.05 ug/kg/day, po administered six times a week for 3 months (reference value: 1.13 +/- 0.69 mmol/L); format: organism-based; settings: in vivo, 5e-05 mg/kg
# Rattus norvegicus [25] = assay: Antiosteoporotic activity in glucocorticoid-induced Wistar rat osteoporosis model assessed as trabecular bone volume at 0.05 ug/kg/day, po administered six times a week for 3 months by fluorescence assay (reference value: 33.09 +/- 5.15%); format: functional, Trabecula
# Rattus norvegicus [26] = assay: Antiosteoporotic activity in glucocorticoid-induced Wistar rat osteoporosis model assessed as trabecula formation surface at 0.05 ug/kg/day, po administered six times a week for 3 months by fluorescence assay (reference value: 7.82 +/- 2.46%); format: functional
# Rattus norvegicus [27] = assay: Antiosteoporotic activity in glucocorticoid-induced Wistar rat osteoporosis model assessed as trabecula resorption surface at 0.05 ug/kg/day, po administered six times a week for 3 months by fluorescence assay (reference value: 7.22 +/- 2.04%); format: functional
# Rattus norvegicus [28] = assay: Antiosteoporotic activity in glucocorticoid-induced Wistar rat osteoporosis model assessed as mineral apposition rate at 0.05 ug/kg/day, po administered six times a week for 3 months by fluorescence assay (reference value: 1.06 +/- 0.27 micrometer/day); format: functional
smiles,measurement,setting,value
O=C(c1ccc(OCCN2CCCCC2)cc1)c1c(-c2ccc(O)cc2)sc2cc(O)ccc12 [RALOXIFENE],Activity,Rattus norvegicus [1],2.94 ×10⁹ /L
same,Activity,Rattus norvegicus [2],39.05%
same,Activity,Rattus norvegicus [3],40.58%
same,Activity,Rattus norvegicus [4],115.27 U/L
same,Activity,Rattus norvegicus [5],35.09 U/L
same,Activity,Rattus norvegicus [6],0.76 mmol/L
same,Activity,Rattus norvegicus [7],34.35%
same,Activity,Rattus norvegicus [8],7.04%
same,Activity,Rattus norvegicus [9],7.82%
same,Activity,Rattus norvegicus [10],1.16 micrometer/day
same,Activity,Rattus norvegicus [11],Active
same,Activity,Rattus norvegicus [12],Active
same,Activity,Rattus norvegicus [13],Active
same,Activity,Rattus norvegicus [14],Active
C=C1/C(=C\C=C2/CCC[C@]3(C)[C@@H]([C@H](C)CCCC(C)C)CC[C@@H]23)C[C@@H](O)C[C@@H]1O [ALFACALCIDOL],Activity,Rattus norvegicus [15],Active
same,Activity,Rattus norvegicus [16],Active
same,Activity,Rattus norvegicus [17],Active
same,Activity,Rattus norvegicus [18],Active
same,Activity,Rattus norvegicus [19],3.42 ×10⁹ /L
same,Activity,Rattus norvegicus [20],34.83%
same,Activity,Rattus norvegicus [21],48.13%
same,Activity,Rattus norvegicus [22],109.73 U/L
same,Activity,Rattus norvegicus [23],30.64 U/L
same,Activity,Rattus norvegicus [24],0.51 mmol/L
same,Activity,Rattus norvegicus [25],28.54%
same,Activity,Rattus norvegicus [26],6.72%
same,Activity,Rattus norvegicus [27],8.15%
same,Activity,Rattus norvegicus [28],1.05 micrometer/day
